Values quoted from earlier work in patent US20160066563A1, “COMPOSITIONS AND METHODS FOR COLLECTING, WASHING, CRYOPRESERVING, RECOVERING AND RETURN OF LIPOASPIRATES TO PHYSICIAN FOR AUTOLOGOUS ADIPOSE TRANSFER PROCEDURES” (priority 2012, published 2016).

Test system: cells
Details: at room temperature or body temperature

Structure (SMILES)	toxicity to cells
C[S+](C)[O-] [DMSO, dimethylsulfoxide]	toxic to cells
OCC(O)CO [glycerol]	not toxic
